Here are results for 19 compounds from US20060122185A1, “Bicyclic inhibitors of Rho kinase” (priority 2004, published 2006).

pKi: −log10 of the molar value.

One may read the pKi as the negative decadic logarithm of the Ki, by convention in mol/L.

Chain of ROCK (Q13464 6-553): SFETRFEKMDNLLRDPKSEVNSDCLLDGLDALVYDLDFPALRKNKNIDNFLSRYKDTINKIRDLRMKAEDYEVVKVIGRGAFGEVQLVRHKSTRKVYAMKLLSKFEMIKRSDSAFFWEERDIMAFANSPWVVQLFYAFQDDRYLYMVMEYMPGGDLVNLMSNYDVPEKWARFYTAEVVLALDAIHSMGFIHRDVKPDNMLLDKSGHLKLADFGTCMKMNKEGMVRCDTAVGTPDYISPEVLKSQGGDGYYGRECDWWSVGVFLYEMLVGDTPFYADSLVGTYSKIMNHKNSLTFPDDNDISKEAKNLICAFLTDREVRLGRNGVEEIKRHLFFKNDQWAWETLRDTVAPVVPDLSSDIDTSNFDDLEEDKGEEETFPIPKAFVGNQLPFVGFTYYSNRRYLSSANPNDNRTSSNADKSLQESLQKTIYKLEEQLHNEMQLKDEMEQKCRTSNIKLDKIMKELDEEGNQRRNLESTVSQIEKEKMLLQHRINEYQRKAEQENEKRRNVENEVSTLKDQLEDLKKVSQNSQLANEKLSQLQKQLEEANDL
Chain of ROCK I (AA 6-553) (Q13464 6-553): as above

The first test concerns the target ROCK (Homo sapiens, UniProt Q13464). Kind of test: ROCK radioactive enzyme assay (33P). In kind it is biochemical. Particulars: 13 μM [γ-33P] ATP, 27 μM MBP, 5 nM ROCK, room temperature. As for the experimental part:
Compounds are screened for their ability to inhibit ROCK using a standard radioactive enzyme assay. Assays are carried out in a solution containing 100 mM HEPES (pH 7.5), 10 mM MgCl2, 25 mM NaCl, 2 mM DTT and 1.5% DMSO. Final substrate concentrations in the assay are 13 μM [γ-^33P] ATP (25 mCi ^33P ATP/mmol ATP, Perkin Elmer, Cambridge, Mass./Sigma Chemicals, St Louis, Mo.) and 27 μM Myelin Basic Protein (MBP). Final enzyme concentration in the assay is 5 nM ROCK. Assays are carried out at room temperature. 1.5 μl of DMSO stock containing serial dilutions of the compound of the present invention (concentrations ranging from 10 μM to 2.6 nM) is placed in a 96 well plate. 50 μl of Solution 1 (100 mM HEPES (pH 7.5), 10 mM MgCl2, […] [γ-^33P] ATP) is added to the plate. The reaction is initiated by addition of 50 μl of Solution 2 (100 mM HEPES (pH 7.5), 10 mM MgCl2, 4 mM DTT, […] and 10 nM ROCK). After 2 hours the reaction is quenched with 50 μL of 30% trichloroacetic acid (TCA, Fisher) containing 9 mM ATP. Transfer of 140 μL of the quenched reaction to a glass fiber filter plate (Corning, Cat. No. 3511) is followed by washing 3 times with 5% TCA. 50 μL of Optima Gold scintillation fluid (Perkin Elmer) is added and the plates are counted on a Top Count (Perkin Elmer). After removing mean background values for all of the data points the data is fit using Prism software to obtain a Ki(app).
(§1) Table 3 depicts enzyme inhibition data (Ki) for certain exemplary compounds. Compound numbers in Table 3 correspond to those compounds depicted in Table 1.
On to `CS(=O)(=O)Nc1ccc(F)c(CC(=O)Nc2cc(-c3n[nH]c4ncccc34)cs2)c1` [Compound 6, 2-(2-Fluoro-5-methanesulfonylamino-phenyl)-N-[4-(1H-pyrazolo[3,4-b]pyridin-3-yl)-thiophen-2-yl]-acetamide], for which the pKi is over 6.30.

As to `O=C(NCC1CCCCC1)c1cc(-c2n[nH]c3ncccc23)c[nH]1` [Compound 17], the negative-log Ki (pKi) is over 6.30.

For `CCN(CC)S(=O)(=O)c1cccc(CC(=O)Nc2nc(-c3n[nH]c4ncccc34)cs2)c1` [Compound 4], the negative logarithm of the Ki (pKi) is over 6.30.

As to `COc1cccc(CNC(=O)c2cc(-c3n[nH]c4ncccc34)c[nH]2)c1` [Compound 13], the pKi is over 6.30.

`O=C(NCc1cccc(F)c1)c1cc(-c2n[nH]c3ncccc23)c[nH]1` [Compound 16]: the pKi was over 6.30.

For `CC(CO)NC(=O)c1cc(-c2n[nH]c3ncccc23)c[nH]1` (stereo not shown) [Compound 12], the negative-log Ki (pKi) was 5.30 to 6.30.

In the case of `O=C(Cc1cccc(OCCCC2CCNCC2)c1)Nc1cc(-c2n[nH]c3ncccc23)cs1` [Compound 7, 2-(3-(3-Piperidin-4-yl-propoxy)-phenyl)-N-[4-(1H-pyrazolo[3,4-b]pyridin-3-yl)-thiophen-2-yl]-acetamide], the pKi was over 6.30.

As for `O=C(Cc1ccccc1)Nc1nc(-c2n[nH]c3ncccc23)cs1` [Compound 2], the negative logarithm of the Ki (pKi) was over 6.30.

As for `CS(=O)(=O)Nc1cccc(CC(=O)Nc2nc(-c3n[nH]c4ncccc34)cs2)c1` [Compound 5], the negative-log Ki (pKi) is over 6.30.

Turning to `CS(=O)(=O)Nc1cccc(CC(=O)Nc2cc(-c3n[nH]c4nccnc34)cs2)c1` [Compound 20], the pKi was over 6.30.

For `COc1cccc(CC(=O)Nc2nc(-c3n[nH]c4ncccc34)cs2)c1` [Compound 3], the pKi is over 6.30.

For the compound `CS(=O)(=O)Nc1ccc(F)c(CC(=O)Nc2cc(-c3n[nH]c4nccnc34)cs2)c1` [Compound 9, N-(4-(1H-pyrazolo[3,4-b]pyrazin-3-yl)thiophen-2-yl)-2-(5-methsulfonamido-2-fluorophenyl)acetamide], the negative-log Ki (pKi) is over 6.30.

As for `O=C(NCc1cccc(OC(F)(F)F)c1)c1cc(-c2n[nH]c3ncccc23)c[nH]1` [Compound 14], the pKi was over 6.30.

`CS(=O)(=O)Nc1cccc(CC(=O)Nc2cc(-c3n[nH]c4ncccc34)cs2)c1` [Compound 8, 2-(3-Methanesulfonylamino-phenyl)-N-[4-(1H-pyrazolo[3,4-b]pyridin-3-yl)-thiophen-2-yl]-acetamide]: the negative-log Ki (pKi) is over 6.30.

On to `O=C(NCc1ccc2c(c1)OCO2)c1cc(-c2n[nH]c3ncccc23)c[nH]1` [Compound 15], for which the pKi was over 6.30.

On to `CN(C)S(=O)(=O)c1cccc(CC(=O)Nc2cc(-c3n[nH]c4ncccc34)cs2)c1` [Compound 10, 2-(3-Dimethylsulfamoyl-phenyl)-N-[4-(1H-pyrazolo[3,4-b]pyridin-3-yl)-thiophen-2-yl]-acetamide], for which the pKi was over 6.30.

As for `CS(=O)(=O)Nc1cccc(CNC(=O)c2cc(-c3n[nH]c4ncccc34)c[nH]2)c1` [Compound 11], the pKi was over 6.30.

As for `O=C(NCc1ccc(F)cc1)c1cc(-c2n[nH]c3ncccc23)c[nH]1` [Compound 18], the pKi is over 6.30.

For another test, the target named is ROCK I (AA 6-553) (Homo sapiens, UniProt Q13464). The experiment in a line: ROCK I coupled enzyme assay (enzyme-linked). The test is classed as biochemical. As to conditions: 45 μM ATP, 200 μM peptide, 45 nM ROCK I, 30° C. As for the experimental part:
Compounds are screened for their ability to inhibit ROCK I (AA 6-553) activity using a standard coupled enzyme system (Fox et al. Protein Sci. 7: 2249, 1998). Reactions are carried out in a solution containing 100 mM HEPES (pH 7.5), 10 mM MgCl2, 25 mM NaCl, 2 mM DTT and 1.5% DMSO. Final substrate concentrations in the assay are 45 μM ATP (Sigma Chemicals, St Louis, Mo.) and 200 μM peptide (American Peptide, Sunnyvale, Calif.). Reactions are carried out at 30° C. and 45 nM ROCK I. Final concentrations of the components of the coupled enzyme system are 2.5 mM phosphoenolpyruvate, 350 μM NADH, 30 μg/ml pyruvate kinase and 10 μg/ml lactate dehydrogenase.
as §1
`O=C(N[C@H](CO)c1ccccc1)c1cc(-c2n[nH]c3ncccc23)c[nH]1` [Compound 1] gave a pKi of over 6.30.
